Reference: publication PMC12324462 (bioRxiv, 2025)

Biological target: CDK9 (Homo sapiens, UniProt P50750)
Experiment: in vitro kinase assay
Type: biochemical

Chain of CDK9 (P50750 whole entry): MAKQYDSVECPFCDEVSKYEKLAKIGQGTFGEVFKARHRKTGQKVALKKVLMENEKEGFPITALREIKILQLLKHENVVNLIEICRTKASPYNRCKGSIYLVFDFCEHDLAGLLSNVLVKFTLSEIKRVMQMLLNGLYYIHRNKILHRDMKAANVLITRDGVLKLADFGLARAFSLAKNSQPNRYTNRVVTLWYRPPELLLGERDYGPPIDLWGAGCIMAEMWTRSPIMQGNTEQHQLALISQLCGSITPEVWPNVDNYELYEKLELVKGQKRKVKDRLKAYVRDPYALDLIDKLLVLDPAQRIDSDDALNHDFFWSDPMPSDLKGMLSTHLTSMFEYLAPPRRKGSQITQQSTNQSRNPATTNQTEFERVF

IC50: 650 nM
SMILES: Cc1cc(O)c(-c2ccc([C@@H](C)CN(C)C)cc2)c2c1[nH]c(=O)c1sccc12 [OTS964]
